Publication PMC10817917, “Alkyl deoxyglycoside-polymyxin combinations against critical priority carbapenem-resistant gram-negative bacteria” (Scientific Reports, 2024)
Converted amounts (≈) assume the structure as drawn. “Also recorded” adds a separate entry of the source. Like-named read-outs stand apart in the source and are kept apart here.

Columns and labels:
[1] = test system: E. coli K12 spheroplasts; details: only the IM left intact; cited from earlier work
[2] = test system: E. coli ATCC 25922; assay: Broth microdilution MIC/MBC, glycosides with or without polymyxins; type: cell-based, Escherichia coli; details: for MIC: Escherichia coli, ATCC25922
[3] = test system: K. pneumoniae CQ1947; assay: Broth microdilution MIC, glycosides with or without polymyxins; type: cell-based, Klebsiella pneumoniae; details: for MIC: Klebsiella pneumoniae, CQ1947
[4] = test system: A. baumannii CQ4322; assay: Broth microdilution MIC/MBC, glycosides with or without polymyxins; type: cell-based, Acinetobacter baumannii; details: for MIC: Acinetobacter baumannii, CQ4322
[5] = test system: B. cereus ATCC 14579; details: cited from earlier work
[6] = test system: E. coli K12; details: cited from earlier work
[7] = PE vs phosphatidylcholine (PC); cited from earlier work
[8] = test system: P. aeruginosa CQ4924; assay: Broth microdilution MIC, glycosides with or without polymyxins; type: cell-based, Pseudomonas aeruginosa; details: for MIC: Pseudomonas aeruginosa, CQ4924
[9] = alone, read-out: MICA (MIC of each compound individually)
[10] = combination with the lowest FICI
[11] = compound + colistin, lowest FICI

CCCCCCCCCCCCO[C@H]1C[C@H](O)[C@@H](O)[C@H](C)O1 [Compound 3, dodecyl 2,6-dideoxy-α-L-arabino-hexopyranoside]
MIC [1]: 4 µg/mL (≈ 12.6 µM) | MIC of colistin in combination with the compound ([2]; Cpd conc. 0.4 μg/mL, strain A): 0.5 µg/mL | MIC of colistin in combination with the compound ([2]; Cpd conc. 0.8 μg/mL, strain A): 0.5 µg/mL | MIC of colistin in combination with the compound ([2]; Cpd conc. 3.125 μg/mL, strain A): 0.25 µg/mL | MIC of colistin in combination with the compound ([2]; Cpd conc. 6.25 μg/mL, strain A): 0.25 µg/mL | MIC of colistin in combination with the compound ([2]; Cpd conc. 12.5 μg/mL, strain A): 0.25 µg/mL | MIC of colistin in combination with the compound ([2]; Cpd conc. […], strain A): 0.5 µg/mL | MIC ([2]; agent alone, no adjuvant (polymyxin conc. 0), strain A, read-out: MIC): > 100 µg/mL | MIC [2, 9]: > 100 µg/mL | MIC of compound in combination with PMB ([2]; PMB 0.25 μg/mL, strain A): 3.1 µg/mL | MIC of compound in combination with PMB ([2]; PMB 0.5 μg/mL, strain A): ≤ 0.1 µg/mL | MIC of compound in combination with colistin ([2]; colistin 0.06 μg/mL, strain A): > 100 µg/mL | MIC of compound in combination with colistin ([2]; colistin 0.125 μg/mL, strain A): > 100 µg/mL | MIC of compound in combination with colistin ([2]; colistin 0.25 μg/mL, strain A): 3.1 µg/mL | MIC of compound in combination with colistin ([2]; colistin 0.5 μg/mL, strain A): ≤ 0.1 µg/mL | MICA(A + B) (MIC of compound in combination with colistin) [2, 10]: 3.125 µg/mL | MICB(A + B) (MIC of colistin in combination with compound) [2, 10]: 0.25 µg/mL | Interpretation (of FICI) ([2]; compound + colistin): Additive (from 0.5 to 1.0 were additive) | FICI [2, 11]: 0.52 | MIC of colistin in combination with the compound ([3]; Cpd conc. 0.4 μg/mL, strain F): 0.5 µg/mL | MIC of colistin in combination with the compound ([3]; Cpd conc. 0.8 μg/mL, strain F): 0.5 µg/mL | MIC of colistin in combination with the compound ([3]; Cpd conc. 3.125 μg/mL, strain F): 0.5 µg/mL | MIC of colistin in combination with the compound ([3]; Cpd conc. 6.25 μg/mL, strain F): 0.5 µg/mL | MIC of colistin in combination with the compound ([3]; Cpd conc. 12.5 μg/mL, strain F): 0.5 µg/mL | MIC of colistin in combination with the compound ([3]; Cpd conc. […], strain F): 0.5 µg/mL | MIC ([3]; agent alone, no adjuvant (polymyxin conc. 0), strain F, read-out: MIC): > 100 µg/mL | MIC [3, 9]: > 100 µg/mL | MIC of compound in combination with PMB ([3]; PMB 0.25 μg/mL, strain F): > 100 µg/mL | MIC of compound in combination with PMB ([3]; PMB 0.5 μg/mL, strain F): 1.6 µg/mL | MIC of compound in combination with colistin ([3]; colistin 0.06 μg/mL, strain F): > 100 µg/mL | MIC of compound in combination with colistin ([3]; colistin 0.125 μg/mL, strain F): > 100 µg/mL | MIC of compound in combination with colistin ([3]; colistin 0.25 μg/mL, strain F): > 100 µg/mL | MIC of compound in combination with colistin ([3]; colistin 0.5 μg/mL, strain F): ≤ 0.1 µg/mL | MICA(A + B) (MIC of compound in combination with colistin) [3, 10]: 0.4 µg/mL | MICB(A + B) (MIC of colistin in combination with compound) [3, 10]: 0.5 µg/mL | Interpretation (of FICI) ([3]; compound + colistin): Indifferent (1.0 to 4.0 were indifferent) | FICI [3, 11]: 1.002 | MIC ([4]; agent alone, no adjuvant (polymyxin conc. 0), strain G, read-out: MIC): > 100 µg/mL | MIC [4, 9]: > 100 µg/mL | MIC of colistin in combination with the compound ([4]; Cpd conc. 0.4 μg/mL, strain G): 0.5 µg/mL | MIC of colistin in combination with the compound ([4]; Cpd conc. 0.8 μg/mL, strain G): 0.5 µg/mL | MIC of colistin in combination with the compound ([4]; Cpd conc. 3.125 μg/mL, strain G): 0.5 µg/mL | MIC of colistin in combination with the compound ([4]; Cpd conc. 6.25 μg/mL, strain G): 0.25 µg/mL | MIC of colistin in combination with the compound ([4]; Cpd conc. 12.5 μg/mL, strain G): 0.25 µg/mL | MIC of colistin in combination with the compound ([4]; Cpd conc. […], strain G): 0.5 µg/mL | MIC of compound in combination with PMB ([4]; PMB 0.25 μg/mL, strain G): > 100 µg/mL | MIC of compound in combination with PMB ([4]; PMB 0.5 μg/mL, strain G): 0.8 µg/mL | MIC of compound in combination with colistin ([4]; colistin 0.06 μg/mL, strain G): > 100 µg/mL | MIC of compound in combination with colistin ([4]; colistin 0.125 μg/mL, strain G): > 100 µg/mL | MIC of compound in combination with colistin ([4]; colistin 0.25 μg/mL, strain G): 6.3 µg/mL | MIC of compound in combination with colistin ([4]; colistin 0.5 μg/mL, strain G): ≤ 0.1 µg/mL | MICA(A + B) (MIC of compound in combination with colistin) [4, 10]: 6.25 µg/mL | MICB(A + B) (MIC of colistin in combination with compound) [4, 10]: 0.25 µg/mL | Interpretation (of FICI) ([4]; compound + colistin): Additive (from 0.5 to 1.0 were additive) | FICI [4, 11]: 0.53 | MIC [5]: 16 µg/mL (≈ 50.6 µM) | MIC [6]: 256 µg/mL (≈ 809 µM) | interaction with phosphatidylethanolamine (PE) [7]: selectively interact with phosphatidylethanolamine (PE); also recorded: Confirmed PE binder | MIC of colistin in combination with the compound ([8]; Cpd conc. 0.4 μg/mL, strain H): > 0.5 µg/mL | MIC of colistin in combination with the compound ([8]; Cpd conc. 0.8 μg/mL, strain H): > 0.5 µg/mL | MIC of colistin in combination with the compound ([8]; Cpd conc. 3.125 μg/mL, strain H): 0.5 µg/mL | MIC of colistin in combination with the compound ([8]; Cpd conc. 6.25 μg/mL, strain H): 0.5 µg/mL | MIC of colistin in combination with the compound ([8]; Cpd conc. 12.5 μg/mL, strain H): 0.5 µg/mL | MIC of colistin in combination with the compound ([8]; Cpd conc. […], strain H): > 0.5 µg/mL | MIC of compound in combination with PMB ([8]; PMB 0.25 μg/mL, strain H): > 100 µg/mL | MIC of compound in combination with PMB ([8]; PMB 0.5 μg/mL, strain H): > 100 µg/mL | MIC ([8]; agent alone, no adjuvant (polymyxin conc. 0), strain H, read-out: MIC): > 100 µg/mL | MIC [8, 9]: > 100 µg/mL | MIC of compound in combination with colistin ([8]; colistin 0.06 μg/mL, strain H): > 100 µg/mL | MIC of compound in combination with colistin ([8]; colistin 0.125 μg/mL, strain H): > 100 µg/mL | MIC of compound in combination with colistin ([8]; colistin 0.25 μg/mL, strain H): > 100 µg/mL | MIC of compound in combination with colistin ([8]; colistin 0.5 μg/mL, strain H): 3.1 µg/mL | MICA(A + B) (MIC of compound in combination with colistin) [8, 10]: 3.125 µg/mL | MICB(A + B) (MIC of colistin in combination with compound) [8, 10]: 0.5 µg/mL | Interpretation (of FICI) ([8]; compound + colistin): Additive (from 0.5 to 1.0 were additive) | FICI [8, 11]: 0.52
